Structures can show the parent of a compound that is named as a salt.
Tests used:
Type in all cases: in vivo
[1] = Test Example 1: body weight gain inhibiting effect; settings: KKA^y mice, 8/group, in powder diet, pioglitazone 5 mg/kg/day, extract powder of Preparation Example 1 1.5 g/kg/day
From the text: (§1) Divided into groups of 8 mice, 7-week old KKA^y mice which were genetically obese diabetic animals were used. Group (a) was fed only on a powder diet (CE-2, produced by Clea Japan, Inc.) for 5 weeks, and Group (b), Group (c) and Group (d) were given pioglitazone, the extract powder of Preparation Example 1, and pioglitazone and the extract powder of Preparation Example 1, respectively, for 5 weeks by preparing a powder diet so that the daily dose of each therein was of the values shown in Table 1. During the period of the test, body weights were measured, and the formulation of the diet were adjusted in accordance with an increase or decrease in body weight to keep the doses per day in Group (b) and Group (d) constant.
The results were evaluated by comparing the body weight gain observed in each of Groups (a), (b), (c) and (d) (Student's t-test).

[2] = system: KKA^y mice; experiment: Test Example 2: hypoglycemic effect (blood glucose level in serum); settings: in powder diet, pioglitazone 5 mg/kg/day, extract powder of Preparation Example 1 1.5 g/kg/day
From the text: as §1
Tests were carried out in the same manner as in Test Example 1. The blood was collected 1 week and 5 weeks after commencement of the administration, and the serum was separated to measure the blood glucose levels.

[3] = system: KKA^y mice; experiment: Test Example 4: hypoglycemic effect (blood glucose level in serum); settings: in powder diet, pioglitazone 5 mg/kg/day, extract powder of Preparation Example 2 6.4 g/kg/day
Experimental: (§2) Divided into groups of 7 mice, 7-week old KKA^y mice which were genetically obese diabetic animals were used, and the tests were carried out in the same manner as in Test Example 1, except Group (c) and (d) were given the extract powder of Preparation Example 2, and pioglitazone and the extract powder of Preparation Example 2, respectively, for 4 weeks by preparing the powder diet so that the daily dose each therein was of the values shown in Table 4.
The test was carried out in the same manner as in Test Example 3. The blood was collected 1 week and 4 weeks after commencement of the administration, and the serum was separated to measure the blood glucose levels.
The results were evaluated in the same manner as in Test Example 2.

[4] = Test Example 3: body weight gain inhibiting effect; settings: KKA^y mice, 7/group, in powder diet, pioglitazone 5 mg/kg/day, extract powder of Preparation Example 2 6.4 g/kg/day
Experimental: as §2
The results were evaluated in the same manner as in Test Example 1.

## CCc1ccc(CCOc2ccc(CC3SC(=O)NC3=O)cc2)nc1 (centres unmarked) [Pioglitazone, pioglitazone hydrochloride]
[1]; 1 week
  Body weight gain, 1 week after administration: 5.2 ± 0.2 g
[1]; 5 weeks
  Body weight gain, 5 weeks after administration: 11.8 ± 0.6 g
[2]; 1 week
  Blood glucose level, 1 week after the administration: 404 ± 28 mg/dL
[2]; 5 weeks
  Blood glucose level, 5 weeks after the administration: 527 ± 18 NS mg/dl
[3]; 1 week
  Blood glucose level, 1 week after the administration: 320 ± 30 mg/dL
[3]; 4 weeks
  Blood glucose level, 4 weeks after the administration: 587 ± 24 NS mg/dl
[4]; 1 week
  Body weight gain, 1 week after administration: 5.3 ± 0.4 g
[4]; 4 weeks
  Body weight gain, 4 weeks after administration: 10.7 ± 0.5 g

From patent US20060193925A1, “Side effect-relieving agents and/or hypoglycemic effect enhancers for thiazolidine compounds” (KANEBO, LIMITED, priority 2001, published 2006)
